Experimental data from patent US11267825B2 (AICURIS GMBH & CO. KG, priority 2017, dated 2022).
Read-outs that look alike come from different tables or passages of the source.

Columns and labels:
HBV = assay: Determination of HBV DNA from the supernatants of HepAD38 cells (anti-HBV activity); type: cell-based, hepatitis B virus; settings: Hepatitis B virus, read-out: Cell Activity (EC50)
In short: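 HepAD38 cells (60,000/well) were treated with half-log compound dilutions in tetracycline-free medium to induce HBV production. On day 6, HBV DNA was purified from filtered supernatant and quantified by real-time PCR against plasmid standards. EC50 values came from non-linear regression of relative copy numbers, typically from three experiments in triplicate.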

HBV core protein = HBV core protein (UniProt P03146); type: biochemical; settings: read-out: Assembly Activity (IC50); BODIPY-FL labelled core protein, assembly started with NaCl, read after 6 min
Chain of HBV core protein (P03146 whole entry, looked up): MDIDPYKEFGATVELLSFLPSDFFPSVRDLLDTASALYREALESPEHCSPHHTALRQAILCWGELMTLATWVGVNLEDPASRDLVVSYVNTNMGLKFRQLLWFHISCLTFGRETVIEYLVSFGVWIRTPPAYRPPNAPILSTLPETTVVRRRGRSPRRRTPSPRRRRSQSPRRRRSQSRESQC
Protocol: Biochemical Capsid Assembly Assay
The screening for assembly effector activity was done based on a fluorescence quenching assay published by Zlotnick et al. (2007). The C-terminal truncated core protein containing 149 amino acids of the N-terminal assembly domain was fused to a unique cysteine residue at position 150 and was expressed in E. coli using the pET expression system (Merck Chemicals, Darmstadt). Purification of core dimer protein was performed using a sequence of size exclusion chromatography steps. In brief, the cell pellet from 1 L BL21 (DE3) Rosetta2 culture expressing the coding sequence of core protein cloned NdeI/XhoI into expression plasmid pET21b was treated for 1 h on ice with a native lysis buffer (Qproteome Bacterial Protein Prep Kit; Qiagen, Hilden). After a centrifugation step the supernatant was precipitated during 2 h stirring on ice with 0.23 g/ml of solid ammonium sulfate. Following further centrifugation the resulting pellet was resolved in buffer A (100 mM Tris, pH 7.5; 100 mM NaCl; 2 mM DTT) and was subsequently loaded onto a buffer A equilibrated CaptoCore 700 column (GE HealthCare, Frankfurt). The column flow through containing the assembled HBV capsid was dialyzed against buffer N (50 mM NaHCO3 pH 9.6; 5 mM DTT) before urea was added to a final concentration of 3M to dissociate the capsid into core dimers for 1.5 h on ice. The protein solution was then loaded onto a 1 L Sephacryl S300 column. After elution with buffer N core dimer containing fractions were identified by SDS-PAGE and subsequently pooled and dialyzed against 50 mM HEPES pH 7.5; 5 mM DTT. To improve the assembly capacity of the purified core dimers a second round of assembly and disassembly starting with the addition of 5 M NaCl and including the size exclusion chromatography steps described above was performed. From the last chromatography step core dimer containing fractions were pooled and stored in aliquots at concentrations between 1.5 to 2.0 mg/ml at −80° C.
Immediately before labelling the core protein was reduced by adding freshly prepared DTT in a final concentration of 20 mM. After 40 min incubation on ice storage buffer and DTT was removed using a Sephadex G-25 column (GE HealthCare, Frankfurt) and 50 mM HEPES, pH 7.5. For labelling 1.6 mg/ml core protein was incubated at 4° C. and darkness overnight with BODIPY-FL maleimide (Invitrogen, Karlsruhe) in a final concentration of 1 mM. After labelling the free dye was removed by an additional desalting step using a Sephadex G-25 column. Labelled core dimers were stored in aliquots at 4° C. In the dimeric state the fluorescence signal of the labelled core protein is high and is quenched during the assembly of the core dimers to high molecular capsid structures. The screening assay was performed in black 384 well microtiter plates in a total assay volume of 10 μl using 50 mM HEPES pH 7.5 and 1.0 to 2.0 μM labelled core protein. Each screening compound was added in 8 different concentrations using a 0.5 log-unit serial dilution starting at a final concentration of 100 μM, 31.6 μM or 10 μM. In any case the DMSO concentration over the entire microtiter plate was 0.5%. The assembly reaction was started by the injection of NaCl to a final concentration of […] which induces the assembly process to approximately 25% of the maximal quenched signal. 6 min after starting the reaction the fluorescence signal was measured using a Clariostar plate reader (BMG Labtech, Ortenberg) with an excitation of 477 nm and an emission of 525 nm. As 100% and 0% assembly control HEPES buffer containing 2.5 M and 0 M NaCl was used. Experiments were performed thrice in triplicates. EC50 values were calculated by non-linear regression analysis using the Graph Pad Prism 6 software (GraphPad Software, La Jolla, USA).

[1] = 144 h, HBV DNA in HepAD38 supernatant at day 6

| SMILES | EC50 (HBV; [1]) [µM] | IC50 (HBV core protein) [µM] | EC50 (HBV; HePAD38, 144 h) [µM] |
| --- | --- | --- | --- |
| CNC(=O)Nc1nc2c(s1)CN(C(=O)c1cc3ccccc3[nH]1)CC2 [Example 28, 1-[5-(1H-indole-2-carbonyl)-4H,5H,6H,7H-[1,3]thiazolo[5,4-c]pyridin-2-yl]-3-methylurea] | < 1 | < 5 |  |
| O=C(c1cc2ccccc2[nH]1)N1CCc2nc(CO)sc2C1 [Example 31, [5-(1H-indole-2-carbonyl)-4H,5H,6H,7H-[1,3]thiazolo[5,4-c]pyridin-2-yl]methanol] | 1 to 10 | 5 to 10 |  |
| CCNCc1nc2c(s1)CN(C(=O)c1cc3ccccc3[nH]1)CC2 [Example 32, Ethyl({[5-(1H-indole-2-carbonyl)-4H,5H,6H,7H-[1,3]thiazolo[5,4-c]pyridin-2-yl]methyl})amine] | < 100 | < 100 |  |
| O=C(c1cc2ccccc2[nH]1)N1CCc2nc(NCC3CCCCO3)sc2C1 (stereo not drawn) [Example 35, 5-(1H-indole-2-carbonyl)-N-[(oxan-2-yl)methyl]-4H,5H,6H,7H-[1,3]thiazolo[5,4-c]pyridin-2-amine] | < 1 | 5 to 10 |  |
| O=C(c1cc2ccccc2[nH]1)N1CCc2nc(NCCN3CCOCC3)sc2C1 [Example 36, 5-(1H-indole-2-carbonyl)-N-[2-(morpholin-4-yl)ethyl]-4H,5H,6H,7H-[1,3]thiazolo[5,4-c]pyridin-2-amine] | 1 to 10 | 5 to 10 |  |
| CC(C)OC(=O)[C@H](C)NP(=O)(OCC1(CNc2nc3c(s2)CN(C(=O)c2cc4c(F)cc(F)cc4[nH]2)CC3)CC1)Oc1ccccc1 (stereo partly drawn) [Example 37, Propan-2-yl (2S)-2-[({[1-({[5-(4,6-difluoro-1H-indole-2-carbonyl)-4H,5H,6H,7H-[1,3]thiazolo[5,4-c]pyridin-2-yl]amino}methyl)cyclopropyl]methoxy}(phenoxy)phosphoryl)amino]propanoate] |  | < 100 | < 1 |
| O=C(c1cc2ccccc2[nH]1)N1CCc2nc(CNC3CC3)sc2C1 [Example 38, N-{[5-(1H-indole-2-carbonyl)-4H,5H,6H,7H-[1,3]thiazolo[5,4-c]pyridin-2-yl]methyl}cyclopropanamine] | < 1 | < 5 |  |
| O=C(c1cc2ccccc2[nH]1)N1CCc2nc(CN3CCOCC3)sc2C1 [Example 39, 2-{2-[(morpholin-4-yl)methyl]-4H,5H,6H,7H-[1,3]thiazolo[5,4-c]pyridine-5-carbonyl}-1H-indole] | < 1 | < 5 |  |
| O=C(c1cc2ccccc2[nH]1)N1CCc2nc(CNC3CCOC3)sc2C1 (stereo not drawn) [Example 40, N-{[5-(1H-indole-2-carbonyl)-4H,5H,6H,7H-[1,3]thiazolo[5,4-c]pyridin-2-yl]methyl}oxolan-3-amine] | 1 to 10 | 5 to 10 |  |
| O=C(c1cc2ccccc2[nH]1)N1CCc2nc(CNCC3(CO)CC3)sc2C1 [Example 41, {1-[({[5-(1H-indole-2-carbonyl)-4H,5H,6H,7H-[1,3]thiazolo[5,4-c]pyridin-2-yl]methyl}amino)methyl]cyclopropyl}methanol] | 1 to 10 | < 100 |  |
| O=C(c1cc2ccccc2[nH]1)N1CCc2nc(NC3CC(CO)(CO)C3)sc2C1 [Example 42, [1-(hydroxymethyl)-3-{[5-(1H-indole-2-carbonyl)-4H,5H,6H,7H-[1,3]thiazolo[5,4-c]pyridin-2-yl]amino}cyclobutyl]methanol] | < 1 | < 5 |  |
| O=C(c1cc2ccccc2[nH]1)N1CCc2nc(NC(CO)CO)sc2C1 [Example 43, 2-{[5-(1H-indole-2-carbonyl)-4H,5H,6H,7H-[1,3]thiazolo[5,4-c]pyridin-2-yl]amino}propane-1,3-diol] | < 1 | < 5 |  |
| O=C(c1cc2ccccc2[nH]1)N1CCc2nc(NCC3(O)COC3)sc2C1 [Example 44, 3-({[5-(1H-indole-2-carbonyl)-4H,5H,6H,7H-[1,3]thiazolo[5,4-c]pyridin-2-yl]amino}methyl)oxetan-3-ol] | < 1 | < 5 |  |
| O=C(c1cc2ccccc2[nH]1)N1CCc2nc(N[C@H]3CC[C@@H](O)CC3)sc2C1 [Example 45, (1s,4s)-4-{[5-(1H-indole-2-carbonyl)-4H,5H,6H,7H-[1,3]thiazolo[5,4-c]pyridin-2-yl]amino}cyclohexan-1-ol] | < 1 | < 5 |  |
| O=C(c1cc2ccccc2[nH]1)N1CCc2nc(NCC3(O)CCC3)sc2C1 [Example 46, 1-({[5-(1H-indole-2-carbonyl)-4H,5H,6H,7H-[1,3]thiazolo[5,4-c]pyridin-2-yl]amino}methyl)cyclobutan-1-ol] | < 1 | < 5 |  |
| O=C(c1cc2ccccc2[nH]1)N1CCc2nc(N[C@H]3CCCC[C@@H]3O)sc2C1 [Example 47, (1S,2S)-2-{[5-(1H-indole-2-carbonyl)-4H,5H,6H,7H-[1,3]thiazolo[5,4-c]pyridin-2-yl]amino}cyclohexan-1-ol] | < 1 | < 5 |  |
| O=C(c1cc2ccccc2[nH]1)N1CCc2nc(NC3(CO)CCC3)sc2C1 [Example 48, (1-{[5-(1H-indole-2-carbonyl)-4H,5H,6H,7H-[1,3]thiazolo[5,4-c]pyridin-2-yl]amino}cyclobutyl)methanol] | < 1 | < 5 |  |
| CC1(CNc2nc3c(s2)CN(C(=O)c2cc4ccccc4[nH]2)CC3)CCOC1 (stereo not drawn) [Example 49, 5-(1H-indole-2-carbonyl)-N-[(3-methyloxolan-3-yl)methyl]-4H,5H,6H,7H-[1,3]thiazolo[5,4-c]pyridin-2-amine] | < 1 | < 5 |  |
| CC(=O)NNc1nc2c(s1)CN(C(=O)c1cc3ccccc3[nH]1)CC2 [Example 58, N′-[5-(1H-indole-2-carbonyl)-4H,5H,6H,7H-[1,3]thiazolo[5,4-c]pyridin-2-yl]acetohydrazide] | 1 to 10 | 5 to 10 |  |
| O=C(c1cc2c(F)ccc(F)c2[nH]1)N1CCc2nc(NCC3(CO)CC3)sc2C1 [Example 59, [1-({[5-(4,7-difluoro-1H-indole-2-carbonyl)-4H,5H,6H,7H-[1,3]thiazolo[5,4-c]pyridin-2-yl]amino}methyl)cyclopropyl]methanol] | < 1 | < 5 |  |
| O=C(c1cc2c(Cl)cc(F)cc2[nH]1)N1CCc2nc(NCC3(CO)CC3)sc2C1 [Example 60, [1-({[5-(4-chloro-6-fluoro-1H-indole-2-carbonyl)-4H,5H,6H,7H-[1,3]thiazolo[5,4-c]pyridin-2-yl]amino}methyl)cyclopropyl]methanol] | < 1 | < 5 |  |
| O=C(CC(F)(F)F)Nc1nc2c(s1)CN(C(=O)c1cc3ccccc3[nH]1)CC2 [Example 61, 3,3,3-trifluoro-N-[5-(1H-indole-2-carbonyl)-4H,5H,6H,7H-[1,3]thiazolo[5,4-c]pyridin-2-yl]propanamide] | < 1 | 5 to 10 |  |
| CN(C)CC(=O)Nc1nc2c(s1)CN(C(=O)c1cc3ccccc3[nH]1)CC2 [Example 62, 2-(dimethylamino)-N-[5-(1H-indole-2-carbonyl)-4H,5H,6H,7H-[1,3]thiazolo[5,4-c]pyridin-2-yl]acetamide] | < 1 | 5 to 10 |  |
| O=C(c1cc2c(Cl)cccc2[nH]1)N1CCc2nc(NCC3(CO)CC3)sc2C1 [Example 63, [1-({[5-(4-chloro-1H-indole-2-carbonyl)-4H,5H,6H,7H-[1,3]thiazolo[5,4-c]pyridin-2-yl]amino}methyl)cyclopropyl]methanol] | < 1 | < 5 |  |
